{"source": "ChEMBL document CHEMBL1201862", "about": "“PubChem BioAssay data set” (2004)", "experiment_in_all_cases": "NCI anticancer screen, dose series, 48 h", "key": {"NCI-H460": {"test_system": "NCI-H460"}, "DLD-1": {"test_system": "DLD-1"}, "MCF7": {"test_system": "MCF7"}, "786-0": {"test_system": "786-0"}, "M19-MEL": {"test_system": "M19-MEL"}, "OVCAR-5": {"test_system": "OVCAR-5"}, "NCI-H23": {"test_system": "NCI-H23"}, "SR": {"test_system": "SR"}, "SN12C": {"test_system": "SN12C"}, "HOP-18": {"test_system": "HOP-18"}, "MDA-N": {"test_system": "MDA-N"}, "RXF 393": {"test_system": "RXF 393"}, "COLO 205": {"test_system": "COLO 205"}, "ACHN": {"test_system": "ACHN"}, "A498": {"test_system": "A498"}, "KM12": {"test_system": "KM12"}, "HOP-92": {"test_system": "HOP-92"}, "OVCAR-4": {"test_system": "OVCAR-4"}, "SK-MEL-28": {"test_system": "SK-MEL-28"}, "U-251": {"test_system": "U-251"}, "HCT-15": {"test_system": "HCT-15"}, "DMS-114": {"test_system": "DMS-114"}, "SNB-78": {"test_system": "SNB-78"}, "SK-OV-3": {"test_system": "SK-OV-3"}, "HL-60": {"test_system": "HL-60"}, "Hs-578T": {"test_system": "Hs-578T"}, "MDA-MB-231": {"test_system": "MDA-MB-231"}, "NCI/ADR-RES": {"test_system": "NCI/ADR-RES"}, "T47D": {"test_system": "T47D"}, "UACC-62": {"test_system": "UACC-62"}, "KM-20L2": {"test_system": "KM-20L2"}, "SF-539": {"test_system": "SF-539"}, "HT-29": {"test_system": "HT-29"}, "M14": {"test_system": "M14"}, "CCRF-CEM": {"test_system": "CCRF-CEM"}, "HOP-62": {"test_system": "HOP-62"}, "SW-620": {"test_system": "SW-620"}, "OVCAR-3": {"test_system": "OVCAR-3"}, "SK-MEL-2": {"test_system": "SK-MEL-2"}, "NCI-H522": {"test_system": "NCI-H522"}, "DMS-273": {"test_system": "DMS-273"}, "PC-3": {"test_system": "PC-3"}, "HCC 2998": {"test_system": "HCC 2998"}, "IGROV-1": {"test_system": "IGROV-1"}, "SK-MEL-5": {"test_system": "SK-MEL-5"}, "CAKI-1": {"test_system": "CAKI-1"}, "OVCAR-8": {"test_system": "OVCAR-8"}, "UO-31": {"test_system": "UO-31"}, "UACC-257": {"test_system": "UACC-257"}, "HCT-116": {"test_system": "HCT-116"}, "EKVX": {"test_system": "EKVX"}, "BT-549": {"test_system": "BT-549"}, "A549": {"test_system": "A549"}, "TK-10": {"test_system": "TK-10"}, "LOX IMVI": {"test_system": "LOX IMVI"}, "SF-295": {"test_system": "SF-295"}, "MDA-MB-435": {"test_system": "MDA-MB-435"}, "DU-145": {"test_system": "DU-145"}, "SF-268": {"test_system": "SF-268"}, "MOLT-4": {"test_system": "MOLT-4"}, "SNB-75": {"test_system": "SNB-75"}, "NCI-H226": {"test_system": "NCI-H226"}, "K562": {"test_system": "K562"}, "RPMI-8226": {"test_system": "RPMI-8226"}, "Malme-3M": {"test_system": "Malme-3M"}, "SNB-19": {"test_system": "SNB-19"}}, "note": "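Grown in 96-well plates, cells were treated for 48 hours with each compound at five concentrations. Insufficient inhibition: endpoint recorded as highest concentration tested. GI50: concentration for 50% inhibition of growth.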 Active and inactive are the calls of the source. Rule as the data show it: active = GI50 up to about 1.1 µM and inactive = higher.", "data": [{"smiles": "N#CC(NNC(=O)Cc1ccccc1)c1c(O)ccc2ccccc12", "note": "(stereo unspecified)", "values": [{"measurement": "GI50", "setting": "NCI-H460", "result": "4.25 µM (inactive)"}, {"measurement": "GI50", "setting": "DLD-1", "result": "3.96 µM (inactive)"}, {"measurement": "GI50", "setting": "MCF7", "result": "3.15 µM (inactive)"}, {"measurement": "GI50", "setting": "786-0", "result": "4.6 µM (inactive)"}, {"measurement": "GI50", "setting": "M19-MEL", "result": "2.71 µM (inactive)"}, {"measurement": "GI50", "setting": "OVCAR-5", "result": "13.9 µM (inactive)"}, {"measurement": "GI50", "setting": "NCI-H23", "result": "4.89 µM (inactive)"}, {"measurement": "GI50", "setting": "SR", "result": "3.44 µM (inactive)"}, {"measurement": "GI50", "setting": "SN12C", "result": "7.93 µM (inactive)"}, {"measurement": "GI50", "setting": "HOP-18", "result": "4.36 µM (inactive)"}, {"measurement": "GI50", "setting": "MDA-N", "result": "7.5 µM (inactive)"}, {"measurement": "GI50", "setting": "RXF 393", "result": "7 µM (inactive)"}, {"measurement": "GI50", "setting": "COLO 205", "result": "24.7 µM (inactive)"}, {"measurement": "GI50", "setting": "ACHN", "result": "3.4 µM (inactive)"}, {"measurement": "GI50", "setting": "A498", "result": "30.3 µM (inactive)"}, {"measurement": "GI50", "setting": "KM12", "result": "4.02 µM (inactive)"}, {"measurement": "GI50", "setting": "HOP-92", "result": "5 µM (inactive)"}, {"measurement": "GI50", "setting": "OVCAR-4", "result": "5.5 µM (inactive)"}, {"measurement": "GI50", "setting": "SK-MEL-28", "result": "7.66 µM (inactive)"}, {"measurement": "GI50", "setting": "U-251", "result": "3.72 µM (inactive)"}, {"measurement": "GI50", "setting": "HCT-15", "result": 2.7, "unit": "µM"}, {"measurement": "GI50", "setting": "DMS-114", "result": "2.08 µM (inactive)"}, {"measurement": "GI50", "setting": "SNB-78", "result": "13.6 µM (inactive)"}, {"measurement": "GI50", "setting": "SK-OV-3", "result": "4.84 µM (inactive)"}, {"measurement": "GI50", "setting": "HL-60", "result": "1.67 µM (inactive)"}, {"measurement": "GI50", "setting": "Hs-578T", "result": "7.64 µM (inactive)"}, {"measurement": "GI50", "setting": "MDA-MB-231", "result": "4.19 µM (inactive)"}, {"measurement": "GI50", "setting": "NCI/ADR-RES", "result": "2.92 µM (inactive)"}, {"measurement": "GI50", "setting": "T47D", "result": "3.45 µM (inactive)"}, {"measurement": "GI50", "setting": "UACC-62", "result": "3.08 µM (inactive)"}, {"measurement": "GI50", "setting": "KM-20L2", "result": "15.8 µM (inactive)"}, {"measurement": "GI50", "setting": "SF-539", "result": "4.16 µM (inactive)"}, {"measurement": "GI50", "setting": "HT-29", "result": "11.3 µM (inactive)"}, {"measurement": "GI50", "setting": "M14", "result": "5.13 µM (inactive)"}, {"measurement": "GI50", "setting": "CCRF-CEM", "result": "1.2 µM (inactive)"}, {"measurement": "GI50", "setting": "HOP-62", "result": "10.2 µM (inactive)"}, {"measurement": "GI50", "setting": "SW-620", "result": "6.98 µM (inactive)"}, {"measurement": "GI50", "setting": "OVCAR-3", "result": "2.99 µM (inactive)"}, {"measurement": "GI50", "setting": "SK-MEL-2", "result": "2.92 µM (inactive)"}, {"measurement": "GI50", "setting": "NCI-H522", "result": "3.47 µM (inactive)"}, {"measurement": "GI50", "setting": "DMS-273", "result": "3.68 µM (inactive)"}, {"measurement": "GI50", "setting": "PC-3", "result": "5.33 µM (inactive)"}, {"measurement": "GI50", "setting": "HCC 2998", "result": "14.3 µM (inactive)"}, {"measurement": "GI50", "setting": "IGROV-1", "result": "5.31 µM (inactive)"}, {"measurement": "GI50", "setting": "SK-MEL-5", "result": "3.46 µM (inactive)"}, {"measurement": "GI50", "setting": "CAKI-1", "result": "4.91 µM (inactive)"}, {"measurement": "GI50", "setting": "OVCAR-8", "result": "4.17 µM (inactive)"}, {"measurement": "GI50", "setting": "UO-31", "result": "2.84 µM (inactive)"}, {"measurement": "GI50", "setting": "UACC-257", "result": "3.59 µM (inactive)"}, {"measurement": "GI50", "setting": "HCT-116", "result": "3.46 µM (inactive)"}, {"measurement": "GI50", "setting": "EKVX", "result": "5.56 µM (inactive)"}, {"measurement": "GI50", "setting": "BT-549", "result": "1.73 µM (inactive)"}, {"measurement": "GI50", "setting": "A549", "result": "5.51 µM (inactive)"}, {"measurement": "GI50", "setting": "TK-10", "result": "20.3 µM (inactive)"}, {"measurement": "GI50", "setting": "LOX IMVI", "result": "1.47 µM (inactive)"}, {"measurement": "GI50", "setting": "SF-295", "result": "4.63 µM (inactive)"}, {"measurement": "GI50", "setting": "MDA-MB-435", "result": "10.4 µM (inactive)"}, {"measurement": "GI50", "setting": "DU-145", "result": "10.2 µM (inactive)"}, {"measurement": "GI50", "setting": "SF-268", "result": "3.45 µM (inactive)"}, {"measurement": "GI50", "setting": "MOLT-4", "result": "2.23 µM (inactive)"}, {"measurement": "GI50", "setting": "SNB-75", "result": "8.47 µM (inactive)"}, {"measurement": "GI50", "setting": "NCI-H226", "result": "18.4 µM (inactive)"}, {"measurement": "GI50", "setting": "K562", "result": "3.69 µM (inactive)"}, {"measurement": "GI50", "setting": "RPMI-8226", "result": "3.63 µM (inactive)"}, {"measurement": "GI50", "setting": "Malme-3M", "result": "4.4 µM (inactive)"}, {"measurement": "GI50", "setting": "SNB-19", "result": "9.79 µM (inactive)"}]}]}
